{"source": "patent US12233060B2", "about": "“Inhibitors of Ataxia-Telangiectasia Mutated and Rad3-related protein kinase (ATR) for use in methods of treating cancer” (THE INSTITUTE OF CANCER RESEARCH: ROYAL CANCER HOSPITAL, priority 2016, dated 2025)", "key": {"[1]": {"system": "HCT116 ARID1A+/+ xenografts", "experiment": "In vivo efficacy, HCT116 ARID1A+/+ subcutaneous xenografts", "parameters": "species or system mice", "procedure": "FIG. 3. In vivo ARID1A/ATR synthetic lethality. A. Schematic of VX-970 therapy experiment in mice bearing established HCT116 ARID1A^+/+ and ARID1A^−/− xenografts. Cells were inoculated subcutaneously into nude mice and tumors allowed to establish for 10 days. Mice were then randomized to treatment regimens of either VX-970 (60 mg/kg, 4× weekly by oral gavage) or vehicle. Mice were then treated for a subsequent 40 days. Tumor volume was monitored twice weekly. B. Relative tumor volume plot from (A) showing efficacy of VX-970 and selectivity for ARID1A^−/− xenografts* p=0.024, ANOVA. C. Schematic of tumor incidence experiment in mice with non-established HCT116 ARID1A^+/+ and ARID1A^−/− xenografts. Mice were inoculated with cells as before, randomized and then treated with VX-970. VX-970 or vehicle treatment was initiated on the day of cell implantation. Tumor volume was monitored twice weekly and overall tumour incidence was assessed 40 days later. D. Bar chart of incidence 40 days after implantation of HCT116 ARID1A^+/+ and ARID1A^−/− cells. Each group contained 15 animals and fractions above bars indicate the number of animals in which a measurable xenograft formed. *p=0.027 Fisher's exact test. E and F. Tumor growth in experiment described in (C). *p=0.015 ANOVA. G. VX-970 dose response curves from TOV21G (ARID1A mutant) and RMG1 (ARID1A wildtype) cells. Cells were exposed to VX-970 for 5 days. […] PARP-1, cleaved PARP-1 (85 kDa fragment) and tubulin were detected by western blot. […] Caspase3/7 activity was assessed using Caspase-Glo and total cellular viability was estimated using CellTitre-Glo. Luminescence ratios for Caspase-Glo (i.e. apoptotic cells) and CellTitre-Glo (ie viable cells) was determined for each dose and normalized to DMSO treated samples. *Student's t-test, p<0.05. […]\nIn vivo efficacy studies were performed using HCT116 […], HCT116 ARID1A^−/− and TOV21G cells injected subcutaneously in the flank of female CD-1 Nude mice. […] Tumours were measured manually by calliper trice weekly and animals were sacrificed when tumours reached >15 mm in any direction."}, "[2]": {"system": "HCT116 ARID1A+/+ and ARID1A−/− cells", "experiment": "γH2AX western blot", "assay_type": "cell-based, human", "conditions": "VX-970 0.5 uM; ARID1A−/− vs ARID1A+/+", "procedure": "FIG. 5. ATRi effect on cell cycle progression, chromosomal instability, DNA damage and apoptosis. A. Barchart illustrating G2/M fraction in HCT116 ARID1A^+/+ and ARID1A^−/− cells synchronized in G1/early S phase by double thymidine block and released into fresh media containing DMSO or VX-970 (500 nM). The percentage of cells in G2/M was measured by FACS following PI staining. […] Cells were stained with DAPI. A minimum of 50 anaphases were scored in 3 biological replicate experiments. *p=0.023, Student's t-test. C. Bar chart illustrating frequency of anaphase bridges in TOV21G cells exposed to VX-970 (0.5 uM) or DMSO for 8 hours prior to fixation. Experiment performed as for (B). p=0.006 Student's t-test. D. Mitotic spread images from HCT116 ARID1A^+/+ and ARID1A^−/− cells following exposure to either DMSO or VX-970 (1 uM). Scale bar represents 20 um. E. Bar chart illustrating extent of chromosomal abnormalities in HCT116 ARID1A^+/+ and ARID1A^−/− cells exposed to VX-970 (1 uM). *p<0.05, Student's t-test. F. Western blot illustrating γH2AX in HCT116 ARID1A^+/+ and ARID1A^−/− cells exposed to VX-970 (0.5 uM) for the indicated time prior to cell lyses. G. Bar chart illustrating apoptotic fraction in cells exposed to increasing concentrations of VX-970 for 24 hours. Experiment as per FIG. 3I. H. Western blot illustrating PARP cleavage in HCT116 ARID1A^+/+ and ARID1A^−/− cells exposed to VX-970. […]"}}, "data": [{"compound": "CNCc1ccc(-c2cc(-c3nc(-c4ccc(S(=O)(=O)C(C)C)cc4)cnc3N)on2)cc1", "note": "[VX-970, 5-[4-(Isopropylsulfonyl)phenyl]-3-(3-{4-[(methylamino)methyl]phenyl}-1,2-oxazol-5-yl)-2-pyrazinamine]", "values": [{"measurement": "growth of established ARID1A+/+ xenografts", "setting": "[1]; 60 mg/kg, 4x weekly oral gavage, 40 days", "value": "no effect"}, {"measurement": "growth of ARID1A+/+ xenografts under continued treatment", "setting": "[1]; non-established xenograft experiment, p=0.63 ANOVA", "value": "did not impair"}, {"measurement": "incidence of ARID1A+/+ xenografts", "setting": "[1]; treatment from day of cell implantation, incidence 40 days later, 15 animals per group", "value": 80, "unit": "%"}, {"measurement": "γH2AX induction", "setting": "[2]", "value": "more pronounced"}]}]}
